Experimental data taken from patent US7776572B2, “Method for reducing loss of enzyme activity during storage” (Corning Incorporated, priority 1996, dated 2010).
Like-named read-outs stand apart in the source and are kept apart here. Each block holds one compound with its values, some of them ahead of it.

Columns and labels:
rat = conditions: cited from earlier work
HRP-Goat A'Mouse IgG = experiment: Enzymatic determination of protein binding to coated medium binding polystyrene plate; conditions: coated medium binding PS; versus uncoated high binding polystyrene plate; absorbance 405 nm
Description: The surfactants were coated onto a medium binding polystyrene plate (Corning Costar No. 2587) as described in Material and Methods. A medium binding polystyrene plate (Corning Costar No. 2587) and a high binding polystyrene plate (Corning Costar No. 2581) were used as controls.
(a) HRP-Goat A'Mouse IgG: Kirkegaard & Perry Laboratories, Inc. Catalog No. 074-1806. Stock solution: 0.5 mg/ml; working concentration: 0.04 μg/ml. The working concentration was obtained by adding 11 μl of the stock solution per 25 mls of PBS pH 7.4 to produce a work stock (WS), and then diluting 1:6 (i.e., 10 mls WS+50 mls PBS pH 7.4).
(1) 100 μl-well of HRP-Goat A'Mouse IgG at a concentration of 0.04 μg/ml were added to the test wells and incubated for 1 hour at room temperature.
(2) The wells were then washed 5 times with the 1M wash solution. Each wash include a 5 minute soak followed by decanting.
(3) 100 μl/well of substrate (30 mls ABTS+30 mls H2O2) were added to the test wells and incubated for 15 minutes at room temperature in the dark.
(4) 100 μl/well of stopping solution (1% SDS) were added to the test wells.
(5) The plates were then shaken and read at 405 nm.
(6) Reduction in binding was determined by comparing the absorbance measured in step (5) with the absorbance measured for a high binding polystyrene plate which had not been treated with a non-ionic surfactant but otherwise subjected to steps (1) to (5).

bound protein = experiment: Colloidal gold staining of bound protein after MDCK culture in media containing 5% FBS, visual; conditions: colloidal gold after cell culture, visual observation
Description: The procedures used were as follows. Polystyrene 24-well plates were coated with the non-ionic surfactants listed in Table 5 in accordance with the procedures described in Materials and Methods. Uncoated plates were used as a control. For comparison, plates with a covalently attached acrylamide coating (Corning Costar Catalog #2500) and with a stearic acid coating were also tested. The stearic acid coating was applied in the same manner as the non-ionic surfactants again using a 0.1% (w/v) solution.
The plates were gamma sterilized at 1.5 Mrad and then inoculated with 5.6×10^4 MDCK […] per well in 1 ml of complete media containing 5% FBS (Fetal Bovine Serum). Incubation was carried out at 37° C. in a 5% CO2 atmosphere for two days. The plates were fixed and stained, and cell attachment was noted. Following this, the wells were stained using the colloidal gold technique to detect bound protein. Only visual observations were made.

[1] = system: BSA protein (Bovine Serum Albumin, Fraction V); experiment: BSA binding to coated polystyrene 24-well plates at different pH, colloidal gold stain
Description: Polystyrene plates having 24 wells (Corning Costar #9447) were coated as described in Materials and Methods.
BSA protein (Bovine Serum Albumin, Fraction V, Sigma) was prepared at 10 μg/ml in 0.10 M acetate buffer (pH=4.6), in 0.10 M PBS (pH=7.4), and in 0.10 M NaHCO3 buffer (pH=9.2). Wells of each coated plate, along with uncoated controls, were aliquoted 0.50 ml each of the protein solutions. The samples were run in triplicate.
The plates were placed on a rocker table for 30 minutes at 23° C. The protein solutions were then emptied from the plates, and the wells were rinsed three times with dl H2O. Thereafter, 1.0 ml of colloidal gold stain was added to each well (see Materials and Methods). The plates were placed on a rocker table overnight, rinsed three times with dI H2O, and air dried. Absorbance at 550 nm was then read using the Cambridge Technologies Plate Reader.

[2] = system: ^125I-IgG (goat anti-mouse); experiment: Radiometric determination of IgG binding to surfactant-coated polystyrene microtiter wells; conditions: for Total IgG binding, Non-Sterilized: coated polystyrene wells; for Total IgG binding, Non-Sterilized / Tight IgG binding, Non-Sterilized: not sterilized; for Total IgG binding, Non-Sterilized / Total IgG binding, Sterilized: after three PBS washes; for Total IgG binding, Sterilized / Tight IgG binding, Sterilized: gamma sterilized (1.5 Mrad); for Tight IgG binding, Sterilized / Tight IgG binding, Non-Sterilized: after two hours in PBS-Tween (0.05%)
Description: The hydrophobic surfaces used were flat bottom microtiter plates composed of high binding polystyrene (Corning Costar No. 2581) and medium binding polystyrene (Corning Costar No. 2587). Testing was performed with and without gamma radiation sterilization using cobalt 60 (1.5 Mrad).
The surfactants were applied to the test plates as described in Materials and Methods, followed by sterilization where indicated.
Levels of protein binding were determined using a radiolabeled protein, namely, ^125I-IgG (goat anti-mouse) purchased from DuPont/NEN. Unlabeled IgG in sodium carbonate buffer pH 9.2 was spiked with ^125I-IgG so that the final concentration of labeled IgG and cold IgG in the test solution was 10 μg/mL.
Aliquots of 0.1 milliliters of the protein solution were placed in quadruplicate in the wells of 8-well strips removed from the test microtiter plates. The wells were incubated overnight at 4° C. with shaking. The supernatants were removed from the wells, followed by three washes with 0.2 mL of PBS. The wells were then dried and individually counted to determine “total” IgG binding. After determining “total” binding, the wells were incubated for two hours in 0.2 mL of PBS-Tween (0.05%) at room temperature with shaking. The supernatants were removed from the wells followed by three washes with 0.2 mL of PBS. The wells were dried and individually counted to determine “tight” IgG binding.
Untreated high binding and medium binding plates were used as controls. A comparative experiment was also performed in which a BSA protein coating was used in place of a surfactant coating. The BSA was preabsorbed onto the walls of the wells and then washed to remove excess material. Testing was then performed using the radiolabeled IgG solution as described above.
Radiolabel measurements were performed in a double blind study at BioMolecular Assays (Woburn, Mass.). IgG binding values per microwell were converted to ng/cm^2 values using a surface area of 0.94 cm^2 for a 0.1 mL volume.

Horse IgG = experiment: Protein binding by colloidal gold staining, coated medium binding polystyrene plates; conditions: coated medium binding PS; IgG 10 μg/ml, pH 9.4
Description: Except where indicated, the non-ionic surfactants were applied to the hydrophobic surfaces being tested as a 0.1% (weight/volume) solution in isopropanol. A sufficient amount of coating solution was used to cover the surface being testing with a thin layer of the solution (e.g., 25 μl of the solution per well for a standard 24-well plate). In some cases, the solution was applied to surface by spraying; in others, it was poured onto the surface (into the well). Except where indicated, coated samples were either dried at 70° C. for 30 minutes in an air circulated oven or dried at room temperature overnight to evaporate the isopropanol.
Protein binding was determined in some examples using a colloidal gold straining procedure. In accordance with this procedure, colloidal gold becomes electrostatically attached to bound protein and is detected by measuring absorbance at 550 nanometers. Bio-Rad Laboratories' Colloidal Gold Total Protein Stain was used for this purpose, with absorbance being measured with a Cambridge Technologies Plate Reader (No. 7520).
The surfactants were coated onto medium binding polystyrene plates (Corning Costar No. 2587) as described in Material and Methods.
The plates were incubated with IgG as follows: 0.1 ml of Horse IgG (Pierce Labs) at a working concentration of 10 μg/ml in 0.10M NaHCO3 buffer (pH9.4) were added to each well, incubated 30 minutes on a rocker table, and rinsed with dI H2O. The plates were gold stained overnight (0.3 ml/well), rinsed in dI H2O, air dried, and absorbance was measured at 550 nm.

IgG [3] = experiment: IgG/Au staining of coated polystyrene, type of endgroups
Description: Except where indicated, the non-ionic surfactants were applied to the hydrophobic surfaces being tested as a 0.1% (weight/volume) solution in isopropanol. A sufficient amount of coating solution was used to cover the surface being testing with a thin layer of the solution (e.g., 25 μl of the solution per well for a standard 24-well plate). In some cases, the solution was applied to surface by spraying; in others, it was poured onto the surface (into the well). Except where indicated, coated samples were either dried at 70° C. for 30 minutes in an air circulated oven or dried at room temperature overnight to evaporate the isopropanol. Protein binding was determined in some examples using a colloidal gold straining procedure. In accordance with this procedure, colloidal gold becomes electrostatically attached to bound protein and is detected by measuring absorbance at 550 nanometers. Bio-Rad Laboratories' Colloidal Gold Total Protein Stain was used for this purpose, with absorbance being measured with a Cambridge Technologies Plate Reader (No. 7520). The non-ionic surfactants listed in Table 6 were tested for their ability to produce a low binding surface using the techniques described in Materials and Methods. Polystyrene was used as the hydrophobic test surface and IgG/Au staining was used as the readout.

IgG [4] = experiment: Coating durability using water washes, IgG binding by colloidal gold
Description: Polystyrene plates having 24 wells (Corning Costar #9447) were coated with these surfactants as described in Materials and Methods. Durability was tested by adding dI H2O to the wells of a test plate (3.0 mls/well), following which the plate was placed on a rocker table. […] The protein solution was incubated with the plate on a rocker table for 30 minutes at 23° C., following which the plate was H2O rinse 3× (3 mls each time). The colloidal gold staining procedure described above was used to reveal bound protein. The staining comprised an overnight incubation on a rocker table at 23° C., a dI H2O rinse, drying at room temperature, and reading at 550 nm.

BSA = experiment: Polymer blends molded into petri dishes, BSA binding by colloidal gold; conditions: blended at 5% into polypropylene; silver enhancer
Fetal Bovine Serum (FBS) = experiment: Polymer blends molded into petri dishes, FBS protein binding by colloidal gold; conditions: blended at 5% into polypropylene; silver enhancer
Description: Low binding non-ionic surfactant molecules were blended at 5% (except as noted in Table 13) into a base polymer using a twin screw extruder, then injection molded into the shape of 35 mm petri dishes. Proteins tested were BSA and Fetal Bovine Serum (FBS). Protein binding was determined using a colloidal gold staining procedure as described above. In the case of the polypropylene and EVA blends, a silver enhancer was used (Sigma Chem. Co., St, Louis, Mo., Kit #SE-100).

Compound: O=[As]O[As]=O (centres unmarked) [As2O3, reference compound]
- LD50 (rat): 0.02 grams/Kg

Compound: CCCCCCCC/C=C\CCCCCCCC(=O)OCC(O)CO (centres unmarked) [GLYCEROL MONO-OLEATE]
- % Reduction in Protein Binding (HRP-Goat A'Mouse IgG): 92.4%

Compound: [Cl-].[Na+] [NaCl, reference compound]
- LD50 (rat; in vivo): 4 grams/Kg

- % Reduction in Protein Binding (HRP-Goat A'Mouse IgG): 99.9%
- Absorbance (550 nm) pH = 9.2 ([1]; BSA 10 μg/ml in 0.10 M NaHCO3 buffer): 0.00
- Absorbance (550 nm) pH = 7.4 ([1]; BSA 10 μg/ml in 0.10 M PBS): 0.00
- Absorbance (550 nm) pH = 4.6 ([1]; BSA 10 μg/ml in 0.10 M acetate buffer): 0.00
- Total IgG binding, Non-Sterilized [2]: 18 ng/cm^2
- Total IgG binding, Sterilized [2]: 54 ng/cm^2
- Tight IgG binding, Sterilized [2]: 25 ng/cm^2
- Tight IgG binding, Non-Sterilized [2]: 11 ng/cm^2
- IgG Protein Binding Absorbance (550 nm) (Horse IgG): 0.00
Compound: CCCCCCCCCCCCCCCCOCCOCCO [PEO(2) CETYL ETHER]
- Visual Color Upon Protein Staining (bound protein): None
- Bound Protein Absorbance at 550 nm (IgG [3]): 0.00

Compound: CCCCCCCCCCCCCCCCCC(=O)O [STEARIC ACID, reference compound]
- Visual Color Upon Protein Staining (bound protein): Very dark

- Total IgG binding, Non-Sterilized [2]: 594 ng/cm^2
- Tight IgG binding, Non-Sterilized [2]: 173 ng/cm^2
Compound: BSA Protein: BSA protein coating preabsorbed onto the wells, used in place of a surfactant coating [reference compound]

- % Reduction in Protein Binding (HRP-Goat A'Mouse IgG): 99.8%
- Absorbance (550 nm) Initial (IgG [4]; coated polystyrene, no water wash): 0.00
- Absorbance (550 nm) 1 Time 1 hr 23° C. (IgG [4]; dI H2O wash 1 time, 1 hr, 23° C.): 0.09
- Absorbance (550 nm) 1 Time 24 hr 23° C. (IgG [4]; dI H2O wash 1 time, 24 hr, 23° C.): 0.10
- Absorbance (550 nm) 1 Time 24 hr 37° C. (IgG [4]; dI H2O wash 1 time, 24 hr, 37° C.): 0.10
- Absorbance (550 nm) 1 Time 24 hr 70° C. (IgG [4]; dI H2O wash 1 time, 24 hr, 70° C.): 0.10
- Absorbance (550 nm) 6 Times 30 min each 23° C. (IgG [4]; dI H2O wash 6 times, 30 min each, 23° C.): 0.10
- Total IgG binding, Non-Sterilized [2]: 4 ng/cm^2
- Total IgG binding, Sterilized [2]: 5 ng/cm^2
- Tight IgG binding, Sterilized [2]: 3 ng/cm^2
- Tight IgG binding, Non-Sterilized [2]: 2 ng/cm^2
- IgG Protein Binding Absorbance (550 nm) (Horse IgG): 0.00
- Bound Protein Absorbance (550 nm) BSA (BSA): 0.060
- Bound Protein Absorbance (550 nm) FBS (Fetal Bovine Serum (FBS)): 0.056
Compound: PEO(4) SORBITOL MONO-LAURATE
- Bound Protein Absorbance at 550 nm (IgG [3]): 0.00
